Results reported in US8974823B2, “Solid compositions of low-solubility drugs and poloxamers” (Bend Research, Inc., priority 2003, dated 2015).
Structures can show the parent of a compound that is named as a salt. One block for each compound: values may come before it.

Columns and labels:
[1] = in vitro dissolution test of Drug 2 compositions in Model Fasted Duodenal solution; type: physicochemical; conditions: for AUC / Drug 2 Concentration: MFD solution, 200 μg/mL if all dissolved; for Drug 2 Concentration: 37° C.
Method: (§1) The solid compositions of Examples 1-2 were evaluated in an in vitro dissolution test to ascertain concentration enhancement of Drug 1. A […] sample of each solid composition was added in duplicate to a microcentrifuge tube, so that the total concentration of Drug 1 would have been 2000 μg/mL if all of the drug had dissolved. The tubes were placed in a 37° C. temperature-controlled chamber, and 1.8 mL PBS containing 0.5 wt % sodium taurocholic acid and 1-palmitoyl-2-oleyl-sn-glycero-3-phosphocholine (NaTC/POPC, with a 4/1 weight ratio) at pH 6.5 and 290 mOsm/kg (simulating a Model Fasted Duodenal solution) was added to each respective tube. The samples were quickly mixed using a vortex mixer for about 60 seconds. The samples were centrifuged at 13,000 G at 37° C. for 1 minute. The resulting supernatant solution was then sampled and diluted 1:6 (by volume) with methanol and then analyzed by high-performance liquid chromatography (HPLC). The contents of each respective tube were mixed on a vortex mixer and allowed to stand undisturbed at 37° C. until the next sample was taken. Samples were collected at 4, 10, 20, 40, 90, and 1200 minutes.
Examples 3-4 were tested by in vitro dissolution tests to ascertain concentration enhancement of Drug 2 as in Examples 1-2, except that a sufficient amount of material was added to the Model Fasted Duodenal solution to obtain a drug concentration of 200 μg/mL if all of the drug dissolved. As a control (C2), crystalline Drug 2 alone was used.
The concentrations of drug obtained in these samples were used to determine the MDC90 and the AUC90 during the initial 90 minutes.

[2] = glass transition temperature (Tg) of the drug; type: physicochemical; conditions: for Tg: Table B, unless noted Tg measured at less than 10% RH
Method: In a first aspect, the invention comprises a solid composition comprising a plurality of particles. The particles comprise a low-solubility drug and a poloxamer. The drug is in intimate contact with the poloxamer in the particles. Collectively, the drug and poloxamer constitute at least 50 wt % of the particles. At least a substantial portion of the drug in the composition is amorphous. The Tg of the drug is at least 50° C. Unless otherwise noted, as used herein the Tg refers to the Tg measured at less than 10% RH.
Such Tg values may represent that of drug dispersed in the amorphous portions of the poloxamer or the Tg of drug-rich phases or domains. […] The Tg of the drug may be at least about 60° C., at least about 70° C., or even at least about 80° C. The Tg of a drug can be determined using standard analytical techniques well known in the art, including by a dynamic mechanical analyzer (DMA), a dilatometer, a dielectric analyzer, and by differential scanning calorimetry (DSC).

Log P of the drug = conditions: for logP: octanol/water, Log P
Source text: A common measure of hydrophobicity is Log P, defined as the base 10 logarithm of the ratio of the drug solubility in octanol to the drug solubility in water. Log P may be measured experimentally or calculated using methods known in the art.

[3] = in vitro dissolution test of Drug 5 particles in MFD solution; type: physicochemical; conditions: dose 120 μg/mL; for Drug 5 Concentration: 37° C.
[4] = as above; type: physicochemical; conditions: dose 120 μg/mL; for AUC / Drug 5 Concentration: MFD solution; for Drug 5 Concentration: 37° C.
Method: as §1
The so-formed particles were tested in vitro to ascertain concentration enhancement of Drug 5 as in Examples 1-2 at a dose of 120 μg/mL. Control C9 consisted of amorphous Drug 5 alone.
The concentration of drug obtained in these samples were used to determine the Cmax90 during the initial 90 minutes.

[5] = in vitro dissolution test of Drug 3 compositions in PBS; type: physicochemical; conditions: for AUC / Drug 3 Concentration: 1000 μg/mL if all dissolved; for Drug 3 Concentration: 37° C.
[6] = Drug 5, MFDS, initial 90 minutes

- AUC90 ([1]; Drug 2, MFD, initial 90 minutes): 100 µg·min/mL
- Cmax90 ([1]; Drug 2, MFD, initial 90 minutes (MDC90 in the text)): 1000 ng/mL
- AUC ([1]; Drug 2, time 0 min): 0 µg·min/mL
- AUC ([1]; Drug 2, time 4 min): 0 µg·min/mL
- AUC ([1]; Drug 2, time 10 min): 0 µg·min/mL
- AUC ([1]; Drug 2, time 20 min): 0 µg·min/mL
- AUC ([1]; Drug 2, time 40 min): 0 µg·min/mL
- AUC ([1]; Drug 2, time 90 min): 100 µg·min/mL
- AUC ([1]; Drug 2, time 1200 min): 3400 µg·min/mL
- Drug 2 Concentration ([1]; time 0 min): 0 µg/mL
- Drug 2 Concentration ([1]; time 4 min): 1 µg/mL
- Drug 2 Concentration ([1]; time 10 min): 1 µg/mL
- Drug 2 Concentration ([1]; time 20 min): 0 µg/mL
- Drug 2 Concentration ([1]; time 40 min): 0 µg/mL
- Drug 2 Concentration ([1]; time 90 min): 1 µg/mL
- Drug 2 Concentration ([1]; time 1200 min): 5 µg/mL
SMILES: Cc1ncccc1CNC(=O)c1ccc2c(c1)CC[C@@H]1C[C@@](O)(CCC(F)(F)F)CC[C@@]21Cc1ccccc1 [Example C2, 2-phenanthrenecarboxamide,4b,5,6,7,8,8a,9,10-octahydro-7-hydroxy-N-[(2-methyl-3-pyridinyl)methyl]-4b-(phenylmethyl)-7-(3,3,3-trifluoropropyl)-, (4bS,7S,8aR)-]

- Tg,drug ([2]; RH not stated): about −15 °C
- Log P (Log P of the drug): 10.1
- logP (Log P of the drug): ~10
SMILES: CCc1cc(Oc2cccc(N(Cc3cccc(OC(F)(F)C(F)F)c3)C[C@@H](O)C(F)(F)F)c2)ccc1Cl [Drug 5, (2R)-3-[[3-(4-chloro-3-ethylphenoxy)phenyl][[3-(1,1 ,2,2-tetrafluoroethoxy)phenyl]methyl]amino]-1,1,1-trifluoro-2-propanol]

- logP (Log P of the drug): 6.9
SMILES: CC[C@@H]1C[C@H](N(Cc2cc(C(F)(F)F)cc(C(F)(F)F)c2)C(C)=O)c2cc(C(F)(F)F)ccc2N1C(=O)OC(C)C [[2R,4S] 4-[acetyl-(3,5-bis-trifluoromethyl-benzyl)-amino]-2-ethyl-6-trifluoromethyl-3,4-dihydro-2H-quinoline-1-carboxylic acid isopropyl ester]

- AUC ([3]; Drug 5, time 0 min): 0 µg·min/mL
- AUC ([3]; Drug 5, time 3.5 min): 5 µg·min/mL
- AUC ([3]; Drug 5, time 7.25 min): 17 µg·min/mL
- AUC ([3]; Drug 5, time 11 min): 34 µg·min/mL
- AUC ([3]; Drug 5, time 20 min): 96 µg·min/mL
- Drug 5 Concentration ([3]; time 3.5 min): 2.8 µg/mL
- Drug 5 Concentration ([3]; time 7.25 min): 3.8 µg/mL
- Drug 5 Concentration ([3]; time 11 min): 5.3 µg/mL
- Drug 5 Concentration ([3]; time 20 min): 8.4 µg/mL
- AUC90 [4, 6]: 1,400 min * μg/mL
- Cmax90 [4, 6]: 29000 ng/mL
- AUC ([4]; Drug 5, time 40 min): 330 µg·min/mL
- AUC ([4]; Drug 5, time 90 min): 1,400 min * μg/mL
- AUC ([4]; Drug 5, time 1200 min): 60,700 min * μg/mL
- Drug 5 Concentration ([4]; time 0 min): 0 µg/mL
- Drug 5 Concentration ([4]; time 40 min): 15 µg/mL
- Drug 5 Concentration ([4]; time 90 min): 29 µg/mL
- Drug 5 Concentration ([4]; time 1200 min): 78 µg/mL
SMILES: CCc1cc(Oc2cccc(N(Cc3cccc(OC(F)(F)C(F)F)c3)C[C@@H](O)C(F)(F)F)c2)ccc1Cl [Example C9, (2R)-3-[[3-(4-chloro-3-ethylphenoxy)phenyl][[3-(1,1 ,2,2-tetrafluoroethoxy)phenyl]methyl]amino]-1,1,1-trifluoro-2-propanol]

SMILES: Cc1c(O)cccc1C(=O)N[C@@H](CSc1ccccc1)[C@H](O)CN1C[C@H]2CCCC[C@H]2C[C@H]1C(=O)NC(C)(C)C [Example C3, nelfinavir mesylate]
- AUC90 ([5]; Drug 3, initial 90 minutes): 400 µg·min/mL
- Cmax90 ([5]; Drug 3, initial 90 minutes (MDC90 in the text)): 6000 ng/mL
- AUC ([5]; Drug 3, time 0 min): 0 µg·min/mL
- AUC ([5]; Drug 3, time 4 min): 0 µg·min/mL
- AUC ([5]; Drug 3, time 10 min): 0 µg·min/mL
- AUC ([5]; Drug 3, time 20 min): 100 µg·min/mL
- AUC ([5]; Drug 3, time 40 min): 200 µg·min/mL
- AUC ([5]; Drug 3, time 90 min): 400 µg·min/mL
- AUC ([5]; Drug 3, time 1200 min): 5100 µg·min/mL
- Drug 3 Concentration ([5]; time 0 min): 0 µg/mL
- Drug 3 Concentration ([5]; time 4 min): 5 µg/mL
- Drug 3 Concentration ([5]; time 10 min): 5 µg/mL
- Drug 3 Concentration ([5]; time 20 min): 6 µg/mL
- Drug 3 Concentration ([5]; time 40 min): 6 µg/mL
- Drug 3 Concentration ([5]; time 90 min): 4 µg/mL
- Drug 3 Concentration ([5]; time 1200 min): 5 µg/mL

- Tg [2]: 135 °C
- logP (Log P of the drug): 7
SMILES: CCCc1nn(C)c2c(=O)[nH]c(-c3cc(S(=O)(=O)N4CCN(C)CC4)ccc3OCC)nc12 [1-[4-ethoxy-3-(6,7-dihydro-1-methyl-7-oxo-3-propyl-1H-pyrazolo[4,3-d]pyrimidin-5-yl)phenylsulphonyl]-4-methylpiperazine]

SMILES: CCOC(=O)N1c2ccc(C(F)(F)F)cc2[C@@H](N(Cc2cc(C(F)(F)F)cc(C(F)(F)F)c2)C(=O)OC)C[C@H]1CC [Drug 4, [2R,4S] 4-[(3,5-bis-trifluoromethyl-benzyl)-methoxycarbonyl-amino]-2-ethyl-6-trifluoromethyl-3,4-dihydro-2H-quinoline-1-carboxylic acid ethyl ester]
- Tg,drug ([2]; at ambient RH): about 28 °C
- Log P (Log P of the drug): 7.3
- logP (Log P of the drug): ~7.5

- logP (Log P of the drug): 7
SMILES: CCC(CC)Nc1cc(C)nc(Oc2c(C)cc(C)cc2C)c1C [[3,6-dimethyl-2-(2,4,6-trimethyl-phenoxy)-pyridin-4-yl]-(1-ethyl-propyl)-amine]

- Tg [2]: 99 °C
- Tg,drug ([2]; at 0% RH): 99 °C
- Log P (Log P of the drug): about 6.2
SMILES: Cc1ncccc1CNC(=O)c1ccc2c(c1)CC[C@@H]1C[C@@](O)(CCC(F)(F)F)CC[C@@]21Cc1ccccc1 [Drug 2, 2-phenanthrenecarboxamide,4b,5,6,7,8,8a,9,10-octahydro-7-hydroxy-N-[(2-methyl-3-pyridinyl)methyl]-4b-(phenylmethyl)-7-(3,3,3-trifluoropropyl)-, (4bS,7S,8aR)-]
